Source: ChEMBL document CHEMBL3259619, “Antibacterial activity of a series of N2,N4-disubstituted quinazoline-2,4-diamines” (J Med Chem, 2014)
Values after ≈ are worked out from the molar mass of the structure shown. Active and inactive are the calls of the source. No rule for the calls is given here.

Columns and labels:
Staphylococcus aureus [1] = assay: Antimicrobial activity against methicillin-resistant Staphylococcus aureus CBD-635 assessed as zone of inhibition at 5 mg/ml after 24 hrs by disk diffusion assay; format: functional; details: CBD-635, 24 h, read-out: IZ
Staphylococcus aureus [2] = assay: Antimicrobial activity against methicillin-resistant Staphylococcus aureus CBD-635 assessed as complete inhibition of bacterial growth after overnight incubation; format: functional
Staphylococcus aureus [3] = assay: Antimicrobial activity against methicillin-resistant Staphylococcus aureus CBD-635 assessed as complete inhibition of bacterial growth at 5 times MIC after overnight incubation in presence of tetrahydrofolic acid; format: functional, organism-based
Staphylococcus aureus [4] = assay: Antimicrobial activity against Staphylococcus aureus; format: functional, organism-based
Escherichia coli = assay: Antimicrobial activity against Escherichia coli; format: functional
Klebsiella pneumoniae [5] = assay: Antimicrobial activity against Klebsiella pneumoniae; format: functional
Klebsiella pneumoniae [6] = assay: Antimicrobial activity against Klebsiella pneumoniae infected in mouse assessed as survival rate at 100 mg/kg; format: functional
Staphylococcus aureus [7] = assay: Antimicrobial activity against N2,N4-dibenzylquinazoline-2,4-diamine-induced methicillin-resistant Staphylococcus aureus CBD-635 mutant M1 assessed as complete inhibition of bacterial growth after overnight incubation; format: functional
Staphylococcus aureus [8] = assay: Antimicrobial activity against N2,N4-dibenzylquinazoline-2,4-diamine-induced methicillin-resistant Staphylococcus aureus CBD-635 mutant M2 assessed as complete inhibition of bacterial growth after overnight incubation; format: functional
Staphylococcus aureus [9] = assay: Antimicrobial activity against N2,N4-dibenzylquinazoline-2,4-diamine-induced methicillin-resistant Staphylococcus aureus CBD-635 mutant M3 assessed as complete inhibition of bacterial growth after overnight incubation; format: functional
Staphylococcus aureus [10] = assay: Antimicrobial activity against N2,N4-dibenzylquinazoline-2,4-diamine-induced methicillin-resistant Staphylococcus aureus CBD-635 mutant M4 assessed as complete inhibition of bacterial growth after overnight incubation; format: functional
Staphylococcus aureus [11] = assay: Antimicrobial activity against N2,N4-dibenzylquinazoline-2,4-diamine-induced methicillin-resistant Staphylococcus aureus CBD-635 mutant M5 assessed as complete inhibition of bacterial growth after overnight incubation; format: functional
Staphylococcus aureus [12] = assay: Antimicrobial activity against N2,N4-dibenzylquinazoline-2,4-diamine-induced methicillin-resistant Staphylococcus aureus CBD-635 mutant M6 assessed as complete inhibition of bacterial growth after overnight incubation; format: functional
Staphylococcus aureus [13] = assay: Antimicrobial activity against N2,N4-dibenzylquinazoline-2,4-diamine-induced methicillin-resistant Staphylococcus aureus CBD-635 mutant M7 assessed as complete inhibition of bacterial growth after overnight incubation; format: functional
Staphylococcus aureus [14] = assay: Antibacterial activity against trimethoprim-resistant Staphylococcus aureus; format: functional
Staphylococcus aureus [15] = assay: Antibacterial activity against Staphylococcus aureus infected in mouse assessed as protection of mouse; format: functional

For `CC(C)Nc1nc(NCc2ccco2)c2ccccc2n1`, the zone of inhibition at 5000 µg/mL (Staphylococcus aureus [1]) was 10 mm, the MIC (Staphylococcus aureus [2]) was 180 µM (≈ 50.8 µg/mL) and the inhibition (Staphylococcus aureus [3]) was “inactive”.

`CSCCNc1nc(NC(C)C)nc2ccccc12` was tested, and the zone of inhibition at 5000 µg/mL (Staphylococcus aureus [1]) was 9 mm, the MIC (Staphylococcus aureus [2]) was > 360 µM and the inhibition (Staphylococcus aureus [3]) was “inactive”.

`CCCCNc1nc(Nc2ccccc2)nc2ccccc12` was tested, and the zone of inhibition at 5000 µg/mL (Staphylococcus aureus [1]) was 12 mm, the MIC (Staphylococcus aureus [2]) was 34 µM (≈ 9.94 µg/mL) and the inhibition (Staphylococcus aureus [3]) was “inactive”.

With `c1ccc(CNc2nc(Nc3ccccc3)c3ccccc3n2)cc1` the zone of inhibition at 5000 µg/mL (Staphylococcus aureus [1]) was 10 mm, the MIC (Staphylococcus aureus [2]) was 31 µM (≈ 10.1 µg/mL) and the inhibition (Staphylococcus aureus [3]) was “inactive”.

Molecule `COc1cc2nc(N3CCC(Nc4ccc(C(=O)O)cc4)CC3)nc(N)c2cc1OC` has an MIC (Staphylococcus aureus [4]) of 12 µM (≈ 5.08 µg/mL), an MIC (Escherichia coli) of 2 µM (≈ 0.847 µg/mL) and an MIC (Klebsiella pneumoniae [5]) of 12 µM (≈ 5.08 µg/mL). For the same molecule, the survival at 100 mg/kg (Klebsiella pneumoniae [6]) was 40%.

In the case of `CC(C)Nc1nc(NCc2ccco2)c2cccc(Cl)c2n1`, the zone of inhibition at 5000 µg/mL (Staphylococcus aureus [1]) is reported as 10 mm, the MIC (Staphylococcus aureus [2]) is reported as 32 µM (≈ 10.1 µg/mL) and the inhibition (Staphylococcus aureus [3]) is reported as “inactive”.

In the case of `CC(C)(C)Nc1nc(NCc2ccco2)c2ccccc2n1`, the zone of inhibition at 5000 µg/mL (Staphylococcus aureus [1]) is reported as 9 mm, the MIC (Staphylococcus aureus [2]) is reported as 340 µM (≈ 101 µg/mL) and the inhibition (Staphylococcus aureus [3]) is reported as “inactive”.

For `CC(C)Nc1nc(NCc2ccco2)c2c(Cl)cccc2n1`, the zone of inhibition at 5000 µg/mL (Staphylococcus aureus [1]) was 9 mm, the MIC (Staphylococcus aureus [2]) was > 78 µM and the inhibition (Staphylococcus aureus [3]) was “inactive”.

`Cc1ccc(CNc2nc(NCc3ccccc3)c3ccccc3n2)cc1` showed an MIC (Staphylococcus aureus [2]) of 28 µM (≈ 9.92 µg/mL), an MIC (Staphylococcus aureus [7]) of 28 µM (≈ 9.92 µg/mL) and an MIC (Staphylococcus aureus [8]) of 2.8 µM (≈ 0.992 µg/mL). For the same molecule, the MIC (Staphylococcus aureus [9]) was 2.8 µM (≈ 0.992 µg/mL), the MIC (Staphylococcus aureus [10]) was 2.8 µM (≈ 0.992 µg/mL) and the MIC (Staphylococcus aureus [11]) was 2.8 µM (≈ 0.992 µg/mL). The MIC (Staphylococcus aureus [12]) was 2.8 µM (≈ 0.992 µg/mL), the MIC (Staphylococcus aureus [13]) was 2.8 µM (≈ 0.992 µg/mL) and the inhibition (Staphylococcus aureus [3]) was “inactive”.

In the case of `COc1ccc(CNc2nc(NCc3ccccc3)nc3ccccc23)cc1`, the MIC (Staphylococcus aureus [2]) is reported as 68 µM (≈ 25.2 µg/mL), the MIC (Staphylococcus aureus [7]) is reported as 27 µM (≈ 10 µg/mL) and the MIC (Staphylococcus aureus [8]) is reported as 27 µM (≈ 10 µg/mL). The MIC (Staphylococcus aureus [9]) was 27 µM (≈ 10 µg/mL), the MIC (Staphylococcus aureus [10]) was 2.7 µM (≈ 1 µg/mL) and the MIC (Staphylococcus aureus [11]) was 27 µM (≈ 10 µg/mL). The MIC (Staphylococcus aureus [12]) was 2.7 µM (≈ 1 µg/mL), the MIC (Staphylococcus aureus [13]) was 27 µM (≈ 10 µg/mL) and the inhibition (Staphylococcus aureus [3]) was “inactive”.

For `c1coc(CNc2nc(NC3CCCCC3)nc3ccccc23)c1`, the zone of inhibition at 5000 µg/mL (Staphylococcus aureus [1]) was 10 mm, the MIC (Staphylococcus aureus [2]) was 78 µM (≈ 25.1 µg/mL) and the inhibition (Staphylococcus aureus [3]) was “inactive”.

`c1ccc(CNc2nc(NCc3ccco3)c3ccccc3n2)cc1` was tested, and the zone of inhibition at 5000 µg/mL (Staphylococcus aureus [1]) was 11 mm, the MIC (Staphylococcus aureus [2]) was 30 µM (≈ 9.91 µg/mL) and the inhibition (Staphylococcus aureus [3]) was “inactive”.

`COc1ccc(CNc2nc(NCc3ccc(OC)cc3)c3ccccc3n2)cc1` was tested, and the MIC (Staphylococcus aureus [2]) was 25 µM (≈ 10 µg/mL), the MIC (Staphylococcus aureus [7]) was > 250 µM and the MIC (Staphylococcus aureus [8]) was > 250 µM. For the same molecule, the MIC (Staphylococcus aureus [9]) was > 250 µM, the MIC (Staphylococcus aureus [10]) was > 250 µM and the MIC (Staphylococcus aureus [11]) was 125 µM (≈ 50.1 µg/mL). For the same molecule, the MIC (Staphylococcus aureus [12]) was 125 µM (≈ 50.1 µg/mL), the MIC (Staphylococcus aureus [13]) was > 250 µM and the inhibition (Staphylococcus aureus [3]) was “inactive”.

For `CNc1nc(NCc2ccco2)nc2ccccc12`, the zone of inhibition at 5000 µg/mL (Staphylococcus aureus [1]) was 10 mm, the MIC (Staphylococcus aureus [2]) was 390 µM (≈ 99.2 µg/mL) and the inhibition (Staphylococcus aureus [3]) was “inactive”.

`CC(C)Nc1nc(NCc2ccco2)c2cc(Cl)ccc2n1` was tested, and the zone of inhibition at 5000 µg/mL (Staphylococcus aureus [1]) was 11 mm, the MIC (Staphylococcus aureus [2]) was 32 µM (≈ 10.1 µg/mL) and the inhibition (Staphylococcus aureus [3]) was “inactive”.

With `COc1ccc2nc(NC(C)C)nc(NCc3ccco3)c2c1` the zone of inhibition at 5000 µg/mL (Staphylococcus aureus [1]) was 10 mm, the MIC (Staphylococcus aureus [2]) was 80 µM (≈ 25 µg/mL) and the inhibition (Staphylococcus aureus [3]) was “inactive”.

Work on `Cc1cc2nc(-c3nccs3)n(-c3ccc4c(N)nc(N)nc4c3)c2cc1C` yielded an MIC (Staphylococcus aureus [14]) of 0.25 µg/mL (≈ 0.645 µM) and a PD50 (Staphylococcus aureus [15]) of 2 mg/kg.

With `c1coc(CNc2nc(NC3CCCC3)nc3ccccc23)c1` the zone of inhibition at 5000 µg/mL (Staphylococcus aureus [1]) was 12 mm, the MIC (Staphylococcus aureus [2]) was 160 µM (≈ 49.3 µg/mL) and the inhibition (Staphylococcus aureus [3]) was “inactive”.

In the case of `Clc1ccc(Nc2nc(NCc3ccco3)nc3ccccc23)cc1`, the zone of inhibition at 5000 µg/mL (Staphylococcus aureus [1]) is reported as 10 mm, the MIC (Staphylococcus aureus [2]) is reported as 29 µM (≈ 10.2 µg/mL) and the inhibition (Staphylococcus aureus [3]) is reported as “inactive”.

With `Cc1cccc2c(NCc3ccco3)nc(NC(C)C)nc12` the zone of inhibition at 5000 µg/mL (Staphylococcus aureus [1]) was 10 mm, the MIC (Staphylococcus aureus [2]) was 340 µM (≈ 101 µg/mL) and the inhibition (Staphylococcus aureus [3]) was “inactive”.
